Values of other authors, collected in US5424332A, “Pharmaceutical composition and process for the production thereof” (priority 1993, dated 1995).

Tested on: aflotoxin toxic effects

O=C(O)/C=C/C(=O)O [fumaric acid]
toxic effects of aflotoxin: reduces the toxic effects
